Our source for the IC50 values is patent US9062048B2, “Cyclohexyl-azetidinyl antagonists of CCR2” (Janssen Pharmaceutica NV, priority 2010, dated 2015).

The target of this experiment is CCR2 (Homo sapiens (Human), UniProt P41597). Briefly: MCP-1 Receptor Binding Assay in THP-1 Cells.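 Further: THP-1 is a human monocytic cell line, and nonspecific binding was defined with 1 µM unlabeled MCP-1.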 To be noted: 0.5 nM 125I labeled MCP-1, 2 hours at 30° C., read-out: Inhibition of MCP-1 Binding IC50 MCP1B.
CCR2, sequence (P41597 whole entry): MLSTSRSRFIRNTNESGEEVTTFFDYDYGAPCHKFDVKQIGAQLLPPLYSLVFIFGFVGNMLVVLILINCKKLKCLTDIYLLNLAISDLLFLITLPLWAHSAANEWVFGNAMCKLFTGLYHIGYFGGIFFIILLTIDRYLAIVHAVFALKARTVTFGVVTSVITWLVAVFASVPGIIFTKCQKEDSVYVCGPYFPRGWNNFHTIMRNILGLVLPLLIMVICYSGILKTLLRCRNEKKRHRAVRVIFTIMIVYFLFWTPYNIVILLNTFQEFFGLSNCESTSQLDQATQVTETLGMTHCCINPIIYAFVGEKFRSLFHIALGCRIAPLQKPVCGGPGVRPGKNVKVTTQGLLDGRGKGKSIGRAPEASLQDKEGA

As for `O=C(CNc1ncnc2ccc(C(F)(F)F)cc12)NC1CN([C@H]2CC[C@@H](O)CC2)C1` [Example 110, N-(1-((1s,4s)-4-hydroxycyclohexyl)azetidin-3-yl)-2-((6-(trifluoromethyl)quinazolin-4-yl)amino)acetamide], the IC50 amounted to 0.068 µM. The value for `CC(=O)NC[C@H]1CC[C@@H](N2CC(NC(=O)CNc3ncnc4ccc(C(F)(F)F)cc34)C2)CC1` [Example 111, N-(1-((1s,4s)-4-(acetamidomethyl)cyclohexyl)azetidin-3-yl)-2-((6-(trifluoromethyl)quinazolin-4-yl)amino)acetamide] was 0.037 µM; that for `O=C(CNc1ncnc2ccc(C(F)(F)F)cc12)NC1CN([C@H]2CC[C@@H](CNC(=O)C(F)(F)F)CC2)C1` [Example 112] was 0.081 µM; that for `CC(C)(C)OC(=O)NC[C@H]1CC[C@@H](N2CC(NC(=O)CNc3ncnc4ccc(C(F)(F)F)cc34)C2)CC1` [Example 113, tert-butyl (((1s,4s)-4-(3-(2-((6-(trifluoromethyl)quinazolin-4-yl)amino)acetamido)azetidin-1-yl)cyclohexyl)methyl)carbamate] was 0.12 µM.

In the case of `CC(C)C(=O)NC[C@H]1CC[C@@H](N2CC(NC(=O)CNc3ncnc4ccc(C(F)(F)F)cc34)C2)CC1` [Example 114], the IC50 worked out at 0.28 µM. As for `CC(=O)N(C[C@H]1CC[C@@H](N2CC(NC(=O)CNc3ncnc4ccc(C(F)(F)F)cc34)C2)CC1)C(C)C` [Example 115], the IC50 turned out to be 0.34 µM. The value for `NC[C@H]1CC[C@@H](N2CC(NC(=O)CNc3ncnc4ccc(C(F)(F)F)cc34)C2)CC1` [Example 116, N-(1-((1s,4s)-4-(aminomethyl)cyclohexyl)azetidin-3-yl)-2-((6-(trifluoromethyl)quinazolin-4-yl)amino)acetamide] was 0.24 µM; that for `CC(C)[C@H]1CC[C@@H](N2CC(NC(=O)CNc3ncnc4ccc(C(F)(F)F)cc34)C2)CC1` [Example 117, N-(1-((1s,4s)-4-isopropylcyclohexyl)azetidin-3-yl)-2-((6-(trifluoromethyl)quinazolin-4-yl)amino)acetamide] was 0.1 µM. For the molecule `[2H][C@]1(N2CC(NC(=O)CNc3ncnc4ccc(C(F)(F)F)cc34)C2)CC[C@@H](C(C)C)CC1` [Example 118, N-(1-deutero-1-((1s,4s)-4-isopropylcyclohexyl)azetidin-3-yl)-2-((6-(trifluoromethyl)quinazolin-4-yl)amino)acetamide], the half-inhibitory concentration (IC50) came to 0.085 µM. For `CC1CCC(N2CC(NC(=O)CNc3ncnc4ccc(C(F)(F)F)cc34)C2)CC1` (centres unmarked) [Example 119, N-(1-(4-methylcyclohexyl)azetidin-3-yl)-2-((6-(trifluoromethyl)quinazolin-4-yl)amino)acetamide], the IC50 was determined as 0.082 µM. The same measure for `CCC(OC)[C@H]1CC[C@@H](N2CC(NC(=O)CNc3ncnc4ccc(C(F)(F)F)cc34)C2)CC1` (some centres unmarked) [Example 120, N-(1-((1s,4s)-4-(1-methoxypropyl)cyclohexyl)azetidin-3-yl)-2-((6-(trifluoromethyl)quinazolin-4-yl)amino)acetamide]: 0.083 µM.

As to `COCC[C@H]1CC[C@@H](N2CC(NC(=O)CNc3ncnc4ccc(C(F)(F)F)cc34)C2)CC1` [Example 121, N-(1-((1s,4s)-4-(2-methoxyethyl)cyclohexyl)azetidin-3-yl)-2-((6-(trifluoromethyl)quinazolin-4-yl)amino)acetamide], the IC50 is 0.098 µM. Consider `CCOC(=O)CC1CCC(N2CC(NC(=O)CNc3ncnc4ccc(C(F)(F)F)cc34)C2)CC1` (centres unmarked) [Example 122], for which the concentration for half-maximal inhibition (IC50) worked out at 0.12 µM. The same measure for `O=C(CNc1ncnc2ccc(C(F)(F)F)cc12)NC1CN(C2CCC(C(F)(F)F)CC2)C1` (centres unmarked) [Example 123, N-(1-(4-(trifluoromethyl)cyclohexyl)azetidin-3-yl)-2-((6-(trifluoromethyl)quinazolin-4-yl)amino)acetamide]: 0.13 µM; for `CN(C)C(=O)OC[C@H]1CC[C@@H](N2CC(NC(=O)CNc3ncnc4ccc(C(F)(F)F)cc34)C2)CC1` [Example 124, ((1s,4s)-4-(3-(2-((6-(trifluoromethyl)quinazolin-4-yl)amino)acetamido)azetidin-1-yl)cyclohexyl)methyl dimethylcarbamate]: 0.21 µM. Regarding `CC(C)(C)OC(=O)NC1CCC(N2CC(NC(=O)CNc3ncnc4ccc(C(F)(F)F)cc34)C2)CC1` (centres unmarked) [Example 125, tert-butyl (4-(3-(2-((6-(trifluoromethyl)quinazolin-4-yl)amino)acetamido)azetidin-1-yl)cyclohexyl)carbamate], the IC50 was 0.22 µM. The same measure for `CON(C)C(=O)C1CCC(N2CC(NC(=O)CNc3ncnc4ccc(C(F)(F)F)cc34)C2)CC1` (centres unmarked) [Example 126]: 0.091 µM; for `CCNC(=O)C1CCC(N2CC(NC(=O)CNc3ncnc4ccc(C(F)(F)F)cc34)C2)CC1` (centres unmarked) [Example 127, N-ethyl-4-(3-(2-((6-(trifluoromethyl)quinazolin-4-yl)amino)acetamido)azetidin-1-yl)cyclohexanecarboxamide]: 0.2 µM; for `CN(C)C(=O)[C@H]1CC[C@@H](N2CC(NC(=O)CNc3ncnc4ccc(C(F)(F)F)cc34)C2)CC1` [Example 128, (1s,4s)-N,N-dimethyl-4-(3-(2-((6-(trifluoromethyl)quinazolin-4-yl)amino)acetamido)azetidin-1-yl)cyclohexanecarboxamide]: 0.36 µM. The same measure for `COc1ccc(CNC(=O)C2CCC(N3CC(NC(=O)CNc4ncnc5ccc(C(F)(F)F)cc45)C3)CC2)c(OC)c1` (centres unmarked) [Example 129, N-(2,4-dimethoxybenzyl)-4-(3-(2-((6-(trifluoromethyl)quinazolin-4-yl)amino)acetamido)azetidin-1-yl)cyclohexanecarboxamide]: 0.39 µM; for `O=C(CNc1ncnc2ccc(C(F)(F)F)cc12)NC1CN([C@H]2CC[C@@H](C(=O)N3CCCC3)CC2)C1` [Example 130, N-(1-((1s,4s)-4-(pyrrolidine-1-carbonyl)cyclohexyl)azetidin-3-yl)-2-((6-(trifluoromethyl)quinazolin-4-yl)amino)acetamide]: 1 µM. The value for `O=C(CNc1ncnc2ccc(C(F)(F)F)cc12)NC1CN([C@H]2CC[C@@H](N3CCC(F)(F)C3)CC2)C1` [Example 131, N-(1-((1s,4s)-4-(3,3-difluoropyrrolidin-1-yl)cyclohexyl)azetidin-3-yl)-2-((6-(trifluoromethyl)quinazolin-4-yl)amino)acetamide] was 0.3 µM; that for `O=C(CNc1ncnc2ccc(C(F)(F)F)cc12)NC1CN([C@H]2CC[C@@H](N3CCOCC3)CC2)C1` [Example 132, N-(1-((1s,4s)-4-morpholinocyclohexyl)azetidin-3-yl)-2-((6-(trifluoromethyl)quinazolin-4-yl)amino)acetamide] was 0.19 µM. Regarding `O=C(CNc1ncnc2ccc(C(F)(F)F)cc12)NC1CN([C@H]2CC[C@@H](N3CCSCC3)CC2)C1` [Example 133, N-(1-((1s,4s)-4-thiomorpholinocyclohexyl)azetidin-3-yl)-2-((6-(trifluoromethyl)quinazolin-4-yl)amino)acetamide], the IC50 is 0.2 µM. Regarding `O=C(CNc1ncnc2ccc(C(F)(F)F)cc12)NC1CN([C@H]2CC[C@@H](N3CCS(=O)(=O)CC3)CC2)C1` [Example 134, N-(1-((1s,4s)-4-(1,1-dioxidothiomorpholino)cyclohexyl)azetidin-3-yl)-2-((6-(trifluoromethyl)quinazolin-4-yl)amino)acetamide], the IC50 was 0.072 µM.

As for `CCC(NC(=O)C(F)(F)F)[C@H]1CC[C@@H](N2CC(NC(=O)CNc3ncnc4ccc(C(F)(F)F)cc34)C2)CC1` (stereo partly drawn) [Example 135, 2,2,2-trifluoro-N—((S)-1-((1s,4R)-4-(3-(2-((6-(trifluoromethyl)quinazolin-4-yl)amino)acetamido)azetidin-1-yl)cyclohexyl)propyl)acetamide], the IC50 came to 2.98 µM. Turning to `CCC(N)[C@H]1CC[C@@H](N2CC(NC(=O)CNc3ncnc4ccc(C(F)(F)F)cc34)C2)CC1` (stereo partly drawn) [Example 136, N-(1-((1R,4s)-4-((S)-1-aminopropyl)cyclohexyl)azetidin-3-yl)-2-((6-(trifluoromethyl)quinazolin-4-yl)amino)acetamide], the IC50 was determined as 0.04 µM. The same measure for `CCC([C@H]1CC[C@@H](N2CC(NC(=O)CNc3ncnc4ccc(C(F)(F)F)cc34)C2)CC1)N(C)C` (stereo partly drawn) [Example 137, N-(1-((1S,4s)-4-((R)-1-(dimethylamino)propyl)cyclohexyl)azetidin-3-yl)-2-(6-(trifluoromethyl)quinazolin-4-ylamino)acetamide]: 5.04 µM; for `CCC(NC(C)=O)[C@H]1CC[C@@H](N2CC(NC(=O)CNc3ncnc4ccc(C(F)(F)F)cc34)C2)CC1` (stereo partly drawn) [Example 138, N-(1-((1R,4s)-4-((S)-1-acetamidopropyl)cyclohexyl)azetidin-3-yl)-2-((6-(trifluoromethyl)quinazolin-4-yl)amino)acetamide]: 1.9 µM. As to `CCC(NS(C)(=O)=O)[C@H]1CC[C@@H](N2CC(NC(=O)CNc3ncnc4ccc(C(F)(F)F)cc34)C2)CC1` (stereo partly drawn) [Example 139, N-(1-((1R,4s)-4-((S)-1-(methylsulfonamido)propyl)cyclohexyl)azetidin-3-yl)-2-((6-(trifluoromethyl)quinazolin-4-yl)amino)acetamide], the concentration for half-maximal inhibition (IC50) came to 1.45 µM. For `CCC(NS(=O)(=O)C(F)(F)F)[C@H]1CC[C@@H](N2CC(NC(=O)CNc3ncnc4ccc(C(F)(F)F)cc34)C2)CC1` (stereo partly drawn) [Example 140, 2-((6-(trifluoromethyl)quinazolin-4-yl)amino)-N-(1-((1R,4s)-4-((S)-1-(trifluoromethylsulfonamido)propyl)cyclohexyl)azetidin-3-yl)acetamide], the IC50 stood at 3 µM.

In the case of `CCC(NC(N)=O)[C@H]1CC[C@@H](N2CC(NC(=O)CNc3ncnc4ccc(C(F)(F)F)cc34)C2)CC1` (stereo partly drawn) [Example 141, 2((6-(trifluoromethyl)quinazolin-4-yl)amino)-N-(1-((1R,4s)-4-((S)-1-ureidopropyl)cyclohexyl)azetidin-3-yl)acetamide], the IC50 came to 0.25 µM.
